Where only a bound is given, the exact number is not on record here.

T1 sequence (P03211 459-607): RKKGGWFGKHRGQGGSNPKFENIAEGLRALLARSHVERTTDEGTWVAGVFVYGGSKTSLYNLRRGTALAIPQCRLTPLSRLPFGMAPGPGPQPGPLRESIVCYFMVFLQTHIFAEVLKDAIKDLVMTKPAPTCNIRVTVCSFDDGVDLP

This assay addresses T1, His-EBNA1 (DNA binding domain of EBNA1, amino acids 459-607) (Epstein-Barr virus, UniProt P03211).
T1 construct: made in house; host or cells: E. coli
As to the kind of experiment: Inhibition of 5'-biotin-oPL4624 binding to His-EBNA1 using Alpha Screen technology. The protocol:
Inhibition of 5′-Biotin-oPL4624 Binding to his-EBNA1 Using Alpha Screen Technology
Assays were performed using the DNA binding domain of EBNA1 (amino acids 459-607), which was His-tagged (His-EBNA1) and the self-complementary biotinylated (bt) oligonucleotide with the sequence 5′-bt-[…]-ATGCTACCC-3′ (bt-oPL4624; or 5′-bt-SEQ ID NO: 1). The protein was expressed in E. coli and purified according to Barwell, et al., 1995, J Biol Chem. 270:20556-9.). The bt-oPL4624 oligonucleotide was purchased from Integrated DNA Technologies, Inc (IDT). AlphaScreen donor, acceptor beads and white, opaque 384-well assay plates were purchased from PerkinElmer, Inc.
Assays contained 15 nM His-EBNA1, 0.2 nM bt-oPL4624, 5 μg/mL AlphaScreen streptavidin donor beads and nickel chelate acceptor beads, and a series of concentrations of test compound ranging from 3.2 nM to 100 μM in a total volume of 40 μL assay buffer (25 mM Tris, pH 7.2, 160 mM NaCl, 1 mM MgCl2). His-EBNA1 (30 nM) and bt-oPL4624 (0.4 nM) were preincubated with 10 μg/mL nickel chelate AlphaScreen acceptor bead, or 10 μg/mL streptavidin AlphaScreen donor bead, respectively, for 30 minutes at room temperature in assay buffer. Twenty microliters of His-EBNA1/acceptor bead mix and bt-oPL4624/donor bead mix were transferred to assay plates containing 0.4 μL of 1:3 serial dilutions of test compounds previously prepared in DMSO at concentrations ranging from 0.32 μM to 10 mM. Non-specific binding was determined with 5 μg/mL AlphaScreen acceptor bead in the absence of His-EBNA1. After 2 hr incubation at room temperature, the AlphaScreen signal was measured on the Envision plate reader (PerkinElmer, Inc.) at 680 nm excitation and 570 nm emission. Inhibition values at each concentration of test compound were determined by setting 100% equal to raw data values in the absence of EBNA1 and 0% equal to the raw data values in the presence of EBNA1. Nonlinear regression fits of the inhibition values to a one-site dose-response equation were performed using GraphPad Prism.
On the technique in general: Bead proximity is the source of the signal in Alpha formats.
What is called IC50 is the concentration that gives 50% inhibition. High values mean a need for much substance, low ones inhibition by little substance. As for `CS(=O)(=O)N1CCC(CN2CCc3cc(C#Cc4cccc(C(=O)O)c4-c4ccc5cc[nH]c5c4)ccc3C2)C1` (stereo not shown) [Entry 61], the IC50 lay in the range of 10 to 100 µM.
The figure for `O=C(O)c1cccc(C#Cc2ccccc2)c1-c1ccc2scnc2c1` [Entry 111] is 10 to 100 µM.
In turn, `CC(=O)N1CCC(Cc2ccc(C#Cc3cccc(C(=O)O)c3-c3ccc4cc[nH]c4c3)cc2)CC1` [Entry 55] gave a half-maximal inhibitory concentration (IC50) of 1 to 10 µM.
The value for `CS(=O)(=O)Nc1nc(-c2cccc(C#Cc3cccc(C(=O)O)c3-c3ccc4cc[nH]c4c3)c2)cs1` [Entry 132] was < 1 µM.
The molecule `N#Cc1ccccc1OCc1ccc(C#Cc2cccc(C(=O)O)c2-c2ccc3cc[nH]c3c2)cc1` [Entry 94] displayed a half-inhibitory concentration (IC50) of 1 to 10 µM.
As to `O=C(O)c1cccc(C#Cc2ccc(CN3CCN(C4CCCCC4)CC3)cc2)c1-c1ccc2cc[nH]c2c1` [Entry 165], the IC50 was in the range of 10 to 100 µM.
Take `CN(C)C(=O)N1CCN(Cc2ccc(C#Cc3cccc(C(=O)O)c3-c3ccc4cc[nH]c4c3)cc2)CC1` [Entry 171]: the IC50 was in the range of 10 to 100 µM.
The value for `Nc1cc(-c2ccc(C#Cc3cccc(C(=O)O)c3-c3ccc4cc[nH]c4c3)cc2)[nH]n1` [Entry 128] was 1 to 10 µM.
For `COC1CCN(C(=O)c2ccc(C#Cc3cccc(C(=O)O)c3-c3ccc4cc[nH]c4c3)cc2)CC1` [Entry 203], the IC50 lay within 1 to 10 µM.
Regarding `O=C(O)c1cccc(C#Cc2ccccc2)c1-c1ccc2cc[nH]c2n1` [Entry 118], the 50% inhibitory concentration (IC50) fell in the range of 100 to 1000 µM.
The value for `N#Cc1cccc(OCc2ccc(C#Cc3cccc(C(=O)O)c3-c3ccc4cc[nH]c4c3)cc2)c1` [Entry 81] was 1 to 10 µM; that for `O=C(O)c1cccc(C#Cc2ccc3c(ccn3CC3CCOCC3)c2)c1-c1ccc2cc[nH]c2c1` [Entry 18] was 1 to 10 µM.
Molecule `O=C(O)c1cccc(C#Cc2ccc(CN3CC(O)C3)cc2)c1-c1ccc2cc[nH]c2c1` [Entry 153] came in with a half-maximal inhibitory concentration (IC50) of 10 to 100 µM.
The figure for `CC(C)S(=O)(=O)N1CCN(Cc2ccc(C#Cc3cccc(C(=O)O)c3-c3ccc4cc[nH]c4c3)cc2)CC1` [Entry 191] is 1 to 10 µM; for `CS(=O)(=O)N1CC(N2Cc3ccc(C#Cc4cccc(C(=O)O)c4-c4ccc5cc[nH]c5c4)cc3C2)C1` [Entry 69] it is 1 to 10 µM; for `O=C(O)c1cccc(C#Cc2ccc(CC3CCN(S(=O)(=O)C(F)(F)F)CC3)cc2)c1-c1ccc2cc[nH]c2c1` [Entry 53] it is 1 to 10 µM.
Turning to `O=C(O)c1cccc(C#Cc2ccc(OC3CCS(=O)(=O)CC3)cc2)c1-c1ccc2cc[nH]c2c1` [Entry 144], the concentration for half-maximal inhibition (IC50) is 10 to 100 µM.
`O=C(O)c1cccc(C#Cc2ccc(CN3CCC(F)(F)CC3)cc2)c1-c1ccc2cc[nH]c2c1` [Entry 158]: the IC50 lay in the range of 1 to 10 µM.
Turning to `CS(=O)(=O)Nc1cccc(-c2cccc(C#Cc3cccc(C(=O)O)c3-c3ccc4cc[nH]c4c3)c2)c1` [Entry 99], the concentration for half-maximal inhibition (IC50) was in the range of 1 to 10 µM.
As to `COC1CCN(Cc2ccc(C#Cc3cccc(C(=O)O)c3-c3ccc4[nH]ccc4c3)cc2)CC1` [Entry 178], the IC50 fell in the range of 10 to 100 µM.
The figure for `O=C(O)c1cccc(C#Cc2cnc3c(ccn3CC3CCOCC3)c2)c1-c1ccc2cc[nH]c2c1` [Entry 17] is 1 to 10 µM.
The value for `O=C(O)c1cccc(C#Cc2ccc(COC3CCS(=O)(=O)CC3)cc2F)c1-c1ccc2cc[nH]c2c1` [Entry 187] was 10 to 100 µM; that for `O=C(O)c1cccc(C#Cc2cccc(-c3cnco3)c2)c1-c1ccc2cc[nH]c2c1` [Entry 107] was 1 to 10 µM; that for `O=C(O)c1cccc(C#Cc2ccc(CN3CCN(S(=O)(=O)C4CC4)CC3)cc2)c1-c1ccc2cc[nH]c2c1` [Entry 190] was 10 to 100 µM.
The figure for `NC(=O)c1cccc(OCc2ccc(C#Cc3cccc(C(=O)O)c3-c3ccc4cc[nH]c4c3)cc2)c1` [Entry 82] is 1 to 10 µM; for `CN1CCCN(Cc2ccc(C#Cc3cccc(C(=O)O)c3-c3ccc4cc[nH]c4c3)cc2)CC1` [Entry 152] it is 1 to 10 µM; for `CS(=O)(=O)N1CC(CN2CCc3cc(C#Cc4cccc(C(=O)O)c4-c4ccc5cc[nH]c5c4)ccc3C2)C1` [Entry 64] it is 10 to 100 µM.
`CS(=O)(=O)N1CCC(CN2Cc3ccc(C#Cc4cccc(C(=O)O)c4-c4ccc5cc[nH]c5c4)cc3C2)CC1` [Entry 72] registered an IC50 of 10 to 100 µM.
The value for `O=C(O)c1cccc(C#Cc2cn(CCCN3CCOCC3)c3ncccc23)c1-c1ccc2cc[nH]c2c1` [Entry 7] was 10 to 100 µM; that for `CS(=O)(=O)N1CCC(Cn2ccc3cc(C#Cc4cccc(C(=O)O)c4-c4ccc5cc[nH]c5c4)ccc32)CC1` [Entry 19] was 1 to 10 µM.
The figure for `O=C(O)c1cccc(C#Cc2ccc(CN3CCOCC3)cc2)c1-c1ccc2cc[nH]c2c1` [Entry 145] is 1 to 10 µM; for `CC(C)S(=O)(=O)N1CCC(Cc2ccc(C#Cc3cccc(C(=O)O)c3-c3ccc4cc[nH]c4c3)cc2)CC1` [Entry 54] it is 1 to 10 µM; for `Nc1nc(-c2cccc(C#Cc3cccc(C(=O)O)c3-c3ccc4cc[nH]c4c3)c2)cs1` [Entry 125] it is 1 to 10 µM.
Turning to `CCOC(=O)N1CCN(Cc2cccc(C#Cc3cccc(C(=O)O)c3-c3ccc4cc[nH]c4c3)c2)CC1` [Entry 104], the IC50 was 10 to 100 µM.
In turn, `CS(=O)(=O)NC(=O)c1cccc(C#Cc2ccc(COC3CCOCC3)cc2)c1-c1ccc2cc[nH]c2c1` [Entry 195] came in with a half-inhibitory concentration (IC50) of 10 to 100 µM.
The figure for `O=C(O)c1cccc(C#Cc2ccc(OC3CCOCC3)cc2)c1-c1ccc2[nH]ccc2c1` [Entry 193] is 1 to 10 µM; for `CS(=O)(=O)N1CC2CN(Cc3ccc(C#Cc4cccc(C(=O)O)c4-c4ccc5cc[nH]c5c4)cc3)CC2C1` (stereo not shown) [Entry 189] it is 10 to 100 µM; for `O=C(O)c1cccc(C#Cc2ccc(COc3ccc(Cl)c(Cl)c3)cc2)c1-c1ccc2cc[nH]c2c1` [Entry 92] it is 1 to 10 µM.
The value for `Nc1cc(-c2cccc(C#Cc3cccc(C(=O)O)c3-c3ccc4cc[nH]c4c3)c2)n[nH]1` [Entry 106] was 1 to 10 µM; that for `Nc1nc2c(s1)C[C@@H](NC(=O)c1ccc(C#Cc3cccc(C(=O)O)c3-c3ccc4cc[nH]c4c3)cc1)CC2` [Entry 200] was 1 to 10 µM; that for `Nc1nc(-c2ccc(C#Cc3cccc(C(=O)O)c3-c3ccc4cc[nH]c4c3)cc2)cs1` [Entry 121] was 1 to 10 µM.
Molecule `CC(C)S(=O)(=O)N1CCc2cc(C#Cc3cccc(C(=O)O)c3-c3ccc4cc[nH]c4c3)ccc2C1` [Entry 77] showed an IC50 of 1 to 10 µM.
The figure for `O=C(O)c1cccc(C#Cc2ccc(C(=O)N3CCC(N4CCOCC4)CC3)c(O)c2)c1-c1ccc2cc[nH]c2c1` [Entry 50] is 1 to 10 µM; for `C(#Cc1cccc(-c2nnn[nH]2)c1-c1ccc2cc[nH]c2c1)c1ccc(COC2CCOCC2)cc1` [Entry 196] it is 1 to 10 µM; for `O=C(O)c1cccc(C#Cc2ccc(C(=O)C3CCOCC3)cc2)c1-c1ccc2cc[nH]c2c1` [Entry 108] it is 1 to 10 µM.
`CS(=O)(=O)N1CC(N2CCc3cc(C#Cc4cccc(C(=O)O)c4-c4ccc5cc[nH]c5c4)ccc3C2)C1` [Entry 60] came in with a half-maximal inhibitory concentration (IC50) of 10 to 100 µM.
The value for `COc1ccc(OCc2ccc(C#Cc3cccc(C(=O)O)c3-c3ccc4cc[nH]c4c3)cc2)cc1` [Entry 85] was 1 to 10 µM; that for `O=C(O)c1cccc(C#Cc2ccc3c(CN4CCS(=O)(=O)CC4)c[nH]c3c2)c1-c1ccc2cc[nH]c2c1` [Entry 32] was 1 to 10 µM; that for `CS(=O)(=O)N1CC(CN2CCc3ccc(C#Cc4cccc(C(=O)O)c4-c4ccc5cc[nH]c5c4)cc3C2)C1` [Entry 65] was 10 to 100 µM.
The figure for `O=C(O)c1cccc(C#Cc2ccc(CN3CCCC(C(F)(F)F)C3)cc2)c1-c1ccc2cc[nH]c2c1` (stereo not shown) [Entry 162] is 1 to 10 µM.
For the molecule `O=C(O)c1cccc(C#Cc2ccc(COC3CCOCC3)cc2)c1-c1ccc2cc[nH]c2c1` [Entry 27], the half-inhibitory concentration (IC50) lay in the range of 10 to 100 µM.
Turning to `O=C(O)c1cccc(C#Cc2ccc3ccn(CCCN4CCOCC4)c3c2)c1-c1ccc2cc[nH]c2c1` [Entry 15], the 50% inhibitory concentration (IC50) fell in the range of 10 to 100 µM.
The figure for `CN(C)S(=O)(=O)NC(=O)c1cccc(C#Cc2ccc(COC3CCOCC3)cc2)c1-c1ccc2cc[nH]c2c1` [Entry 194] is 1 to 10 µM; for `O=C(O)c1cccc(C#Cc2ccc(C(=O)N3CCC(F)(F)CC3)c(O)c2)c1-c1ccc2cc[nH]c2c1` [Entry 51] it is 1 to 10 µM; for `O=C(O)c1cccc(C#Cc2ccc(CN3CCC(F)(F)CC3)cc2)c1-c1ccc2[nH]ccc2c1` [Entry 181] it is 1 to 10 µM.
With `O=C(O)c1cccc(C#Cc2ccc3ccn(CCN4CCS(=O)(=O)CC4)c3c2)c1-c1ccc2cc[nH]c2c1` [Entry 23], the half-inhibitory concentration (IC50) was 10 to 100 µM.
The value for `O=C(O)c1cccc(C#Cc2ccccc2)c1-c1ccc2ncsc2c1` [Entry 110] was 10 to 100 µM; that for `O=C(O)c1cccc(C#Cc2ccc(OC3CCOCC3)nc2)c1-c1ccc2cc[nH]c2c1` [Entry 100] was 1 to 10 µM.

For the origin of these results see patent publication US10442763B2, “EBNA1 inhibitors and methods using same” (priority 2015, dated 2019).
